{"source": "patent US8710183B2", "about": "“Inhibitors of bacterial tyrosine kinase and uses thereof” (Centre National de la Recherche Scientifique (C.N.R.S.), priority 2008, dated 2014)", "key": {"[1]": {"tested_on": "BY-kinase A1B2 (substrate CapO)", "test": "Procedure 2: inhibition of CapO phosphorylation by A1B2 (radioactivity incorporated in CapO)", "type": "biochemical, Staphylococcus aureus", "conditions": "A1B2 50 pmol, CapO 50 pmole", "protocol": "The procedure 2 is based on procedure 1, except that 5 pmole to 100 pmole of the protein substrate are also added either in the same time as the drug or concomitant with the radioactive ATP and the non-radioactive ATP.\n(§1) The procedure was applied for A1B2 [34] and CapO [20] Each Gene has been cloned in the pQE30 vector (Qiagen) to allow fusion of a histidines-tag fused to the N-terminal end of either A1B2 or CapO. This overproducing plasmid has been transformed in the Escherichia coli XL 1-blue strain. Cells have been incubated at 37° C. under shaking until A600 reached 0.5. IPTG was then added at a final concentration of 0.5 mM, and growth was continued for 3 h at 37° C. under shaking. Cells were harvested by centrifugation at 3000×g for 10 min, washed in buffer A (Tris-HCl 50 mM pH7.5, Nacl 200 mM, glycerol 10%, imidazole 10 mM) containing DNase I and RNase A at a final concentration of […] each, lysozyme 1 mg/ml, and protease inhibitors cocktail. Cells were disrupted by sonication. The resulting suspension was centrifuged at 4° C. for 30 min at 30,000×g. The supernatant was incubated with Ni-NTA matrix (Qiagen), suitable for purification of 6 histidines fusion proteins, for 30 min at 4° C. under gentle shaking. The protein-resin complex was packed into a column for washing and elution steps. The column was washed with buffer B (Tris-HCl 50 mM pH7.5, Nacl 200 mM, glycerol 10%, imidazole 20 mM). Protein elution was carried out with buffer C (Tris-HCl 50 mM pH7.5, NaCl 200 mM, glycerol 10%, imidazole 150 mM). Eluted fractions were collected, analyzed by SDS-PAGE. Appropriated fractions are pooled and dialyzed overnight against buffer D (Tris-HCl 50 mM, pH7.5, NaCl 100 mM, DTT 1 mM, MgCl2 1 mM, glycerol 20%) and used for inhibitory tests or stored at +4° C., −20° C., or −80° C.\nAccording to procedure 2, 50 pmol of A1B2 and 50 pmole of a substrate of A1B2, namely the protein CapO, were incubated with either 50 pmole, or 500 pmole, or 5 nmol of BYK001 for 15 min at 37° C. in a final volume of […]. Then, incubation was continued for 30″, or 1′, or 2′ or 5′ in the presence of […] of [g-^32P] ATP (specific activity 3000 Ci/mmole). The amount of radioactivity incorporated in CapO was determined by fluid scintillation counting after gel-electophoresis. The percentage of inhibition of CapO phosphorylation by A1B2 is expressed relatively to CapO radioactivity when incubation was performed without BYK001."}, "BY-kinase A1B2": {"tested_on": "BY-kinase A1B2", "test": "Procedure 1: inhibition of A1B2 autokinase activity (radioactivity incorporated in A1B2)", "type": "biochemical, Staphylococcus aureus", "set-up": "ActivitY (inhibition): concentration or dose not given beside the values", "conditions": "for % of inhibition of A1B2 autokinase activity / Radioactivity incorporated in A1B2: A1B2 50 pmole", "protocol": "50 pmole of the purified BY-kinase (or the dephosphorylated BY-kinase) are incubated for 15 min to 1 hour in the presence of 50 pmole of the drug in a final volume of 20 microliters. The ratio BY-kinase/drug varies from 1/1 to 1/100. The reaction is performed in a buffer specific of each BY-kinase (pH condition, salt concentrations, etc.). The incubation is then continued for 30″ to 1 h in the presence of 5 microCurie of radioactive ATP (^32P or ^33P) labeled on g-P (specific activity 3000 Ci/mmole) and 50 microMolar non-radioactive ATP. The reaction is stopped by adding 5 microliter of gel-electrophoresis loading buffer 5 fold concentrate and heating 5 min at 100° C.\nas §1\nAccording to procedure 1, 50 pmole of A1B2 were incubated with either, 0 pmole, 50 pmole, or 500 pmole, or 5 nmol of BYK001 for 15 min at 37° C. in a final volume of […]. Then, incubation was continued for 30″, or 1′, or 2′ or 5′ in the presence of […] of [g-^32P] ATP (specific activity 3000 Ci/mmole). The amount of radioactivity incorporated in A1B2 was determined by fluid scintillation counting after gel-electophoresis. The percentage of inhibition of A1B2 autokinase activity is expressed relatively to the radioactivity incorporated in A1B2 when incubated without BYK001."}, "[2]": {"conditions": "BYK001 50 pmole, incubation time 0.5 min"}, "[3]": {"conditions": "BYK001 50 pmole, incubation time 1 min"}, "[4]": {"conditions": "BYK001 50 pmole, incubation time 2 min"}, "[5]": {"conditions": "BYK001 50 pmole, incubation time 5 min"}, "[6]": {"conditions": "BYK001 500 pmole, incubation time 0.5 min"}, "[7]": {"conditions": "BYK001 500 pmole, incubation time 1 min"}, "[8]": {"conditions": "BYK001 500 pmole, incubation time 2 min"}, "[9]": {"conditions": "BYK001 500 pmole, incubation time 5 min"}, "[10]": {"conditions": "BYK001 5000 pmole, incubation time 0.5 min"}, "[11]": {"conditions": "BYK001 5000 pmole, incubation time 1 min"}, "[12]": {"conditions": "BYK001 5000 pmole, incubation time 2 min"}, "[13]": {"conditions": "BYK001 5000 pmole, incubation time 5 min"}}, "note": "Where no end group is shown, it is not given here.", "data": [{"substance": "BYK001: peptide with adenine PNA on lysine side chain: S-A-S-Y-Y-A-Y-K(PNA)-G-T-D; native S. aureus tyrosine cluster sequence (SASYYAYK(adenine PNA)GTD)", "values": [{"measurement": "% of inhibition of CapO phosphorylation by A1B2", "setting": "[1]; [2]", "value": 10.05, "unit": "%"}, {"measurement": "Radioactivity incorporated in CapO", "setting": "[1]; [2]", "value": 3555, "unit": "cpm"}, {"measurement": "% of inhibition of CapO phosphorylation by A1B2", "setting": "[1]; [3]", "value": 9.33, "unit": "%"}, {"measurement": "Radioactivity incorporated in CapO", "setting": "[1]; [3]", "value": 6388, "unit": "cpm"}, {"measurement": "% of inhibition of CapO phosphorylation by A1B2", "setting": "[1]; [4]", "value": 10.69, "unit": "%"}, {"measurement": "Radioactivity incorporated in CapO", "setting": "[1]; [4]", "value": 15498, "unit": "cpm"}, {"measurement": "% of inhibition of CapO phosphorylation by A1B2", "setting": "[1]; [5]", "value": 8.11, "unit": "%"}, {"measurement": "Radioactivity incorporated in CapO", "setting": "[1]; [5]", "value": 31901, "unit": "cpm"}, {"measurement": "% of inhibition of CapO phosphorylation by A1B2", "setting": "[1]; [6]", "value": 11.51, "unit": "%"}, {"measurement": "Radioactivity incorporated in CapO", "setting": "[1]; [6]", "value": 3497, "unit": "cpm"}, {"measurement": "% of inhibition of CapO phosphorylation by A1B2", "setting": "[1]; [7]", "value": 10.55, "unit": "%"}, {"measurement": "Radioactivity incorporated in CapO", "setting": "[1]; [7]", "value": 6302, "unit": "cpm"}, {"measurement": "% of inhibition of CapO phosphorylation by A1B2", "setting": "[1]; [8]", "value": 10.40, "unit": "%"}, {"measurement": "Radioactivity incorporated in CapO", "setting": "[1]; [8]", "value": 15549, "unit": "cpm"}, {"measurement": "% of inhibition of CapO phosphorylation by A1B2", "setting": "[1]; [9]", "value": 9.99, "unit": "%"}, {"measurement": "Radioactivity incorporated in CapO", "setting": "[1]; [9]", "value": 31251, "unit": "cpm"}, {"measurement": "% of inhibition of CapO phosphorylation by A1B2", "setting": "[1]; [10]", "value": 11.11, "unit": "%"}, {"measurement": "Radioactivity incorporated in CapO", "setting": "[1]; [10]", "value": 3513, "unit": "cpm"}, {"measurement": "% of inhibition of CapO phosphorylation by A1B2", "setting": "[1]; [11]", "value": 10.36, "unit": "%"}, {"measurement": "Radioactivity incorporated in CapO", "setting": "[1]; [11]", "value": 6315, "unit": "cpm"}, {"measurement": "% of inhibition of CapO phosphorylation by A1B2", "setting": "[1]; [12]", "value": 10.85, "unit": "%"}, {"measurement": "Radioactivity incorporated in CapO", "setting": "[1]; [12]", "value": 15471, "unit": "cpm"}, {"measurement": "% of inhibition of CapO phosphorylation by A1B2", "setting": "[1]; [13]", "value": 10.78, "unit": "%"}, {"measurement": "Radioactivity incorporated in CapO", "setting": "[1]; [13]", "value": 30974, "unit": "cpm"}, {"measurement": "% of inhibition of A1B2 autokinase activity", "setting": "BY-kinase A1B2; [2]", "value": 17.54, "unit": "%"}, {"measurement": "Radioactivity incorporated in A1B2", "setting": "BY-kinase A1B2; [2]", "value": 29233, "unit": "cpm"}, {"measurement": "% of inhibition of A1B2 autokinase activity", "setting": "BY-kinase A1B2; [3]", "value": 16.10, "unit": "%"}, {"measurement": "Radioactivity incorporated in A1B2", "setting": "BY-kinase A1B2; [3]", "value": 71683, "unit": "cpm"}, {"measurement": "% of inhibition of A1B2 autokinase activity", "setting": "BY-kinase A1B2; [4]", "value": 16.63, "unit": "%"}, {"measurement": "Radioactivity incorporated in A1B2", "setting": "BY-kinase A1B2; [4]", "value": 132537, "unit": "cpm"}, {"measurement": "% of inhibition of A1B2 autokinase activity", "setting": "BY-kinase A1B2; [5]", "value": 14.68, "unit": "%"}, {"measurement": "Radioactivity incorporated in A1B2", "setting": "BY-kinase A1B2; [5]", "value": 325711, "unit": "cpm"}, {"measurement": "% of inhibition of A1B2 autokinase activity", "setting": "BY-kinase A1B2; [6]", "value": 13.31, "unit": "%"}, {"measurement": "Radioactivity incorporated in A1B2", "setting": "BY-kinase A1B2; [6]", "value": 30734, "unit": "cpm"}, {"measurement": "% of inhibition of A1B2 autokinase activity", "setting": "BY-kinase A1B2; [7]", "value": 15.17, "unit": "%"}, {"measurement": "Radioactivity incorporated in A1B2", "setting": "BY-kinase A1B2; [7]", "value": 72475, "unit": "cpm"}, {"measurement": "% of inhibition of A1B2 autokinase activity", "setting": "BY-kinase A1B2; [8]", "value": 15.95, "unit": "%"}, {"measurement": "Radioactivity incorporated in A1B2", "setting": "BY-kinase A1B2; [8]", "value": 133624, "unit": "cpm"}, {"measurement": "% of inhibition of A1B2 autokinase activity", "setting": "BY-kinase A1B2; [9]", "value": 14.87, "unit": "%"}, {"measurement": "Radioactivity incorporated in A1B2", "setting": "BY-kinase A1B2; [9]", "value": 324983, "unit": "cpm"}, {"measurement": "% of inhibition of A1B2 autokinase activity", "setting": "BY-kinase A1B2; [10]", "value": 15.67, "unit": "%"}, {"measurement": "Radioactivity incorporated in A1B2", "setting": "BY-kinase A1B2; [10]", "value": 29899, "unit": "cpm"}, {"measurement": "% of inhibition of A1B2 autokinase activity", "setting": "BY-kinase A1B2; [11]", "value": 15.11, "unit": "%"}, {"measurement": "Radioactivity incorporated in A1B2", "setting": "BY-kinase A1B2; [11]", "value": 72528, "unit": "cpm"}, {"measurement": "% of inhibition of A1B2 autokinase activity", "setting": "BY-kinase A1B2; [12]", "value": 11.30, "unit": "%"}, {"measurement": "Radioactivity incorporated in A1B2", "setting": "BY-kinase A1B2; [12]", "value": 141005, "unit": "cpm"}, {"measurement": "% of inhibition of A1B2 autokinase activity", "setting": "BY-kinase A1B2; [13]", "value": 15.20, "unit": "%"}, {"measurement": "Radioactivity incorporated in A1B2", "setting": "BY-kinase A1B2; [13]", "value": 323749, "unit": "cpm"}, {"measurement": "ActivitY (inhibition)", "setting": "BY-kinase A1B2; Table 5, inhibition of BY-kinase A1B2", "value": 15.00, "unit": "%"}, {"measurement": "inhibitory effect on BY-kinase A1B2", "setting": "BY-kinase A1B2; conclusion from procedures 1 and 2", "value": "inhibitory effect"}, {"measurement": "inhibition", "setting": "BY-kinase A1B2; summary", "value": "around 15%"}]}]}
